Reference: patent US8163728B2, “Pyrazoles” (Hoffmann-La Roche Inc., priority 2009, dated 2012)

Molecular target: T1, GABA A α5 (Homo sapiens, UniProt P18507+P31644)
T1 construct: expressed in transfected cells; host or cells: HEK293 cells, transiently transfected; membranes prepared from cell pellets
Assay: [3H]flumazenil competition binding, human GABA A α5β3γ2 receptors in HEK293 cell membranes
Details: human receptor α5β3γ2 transiently transfected in HEK293; 0.5 nM [3H]flumazenil; 1 hour at 4° C.; means of two determinations; read-out: hKi GABA A α5
In short: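 Competition with [3H]flumazenil for binding to membranes of HEK293 cells transiently expressing human α5β3γ2, in Krebs-tris buffer pH 7.5. Incubated to equilibrium 1 h at 4 °C, filtered and scintillation-counted; Ki values are means of two determinations.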

Row | SMILES | Ki
1 | Cn1nc(OCc2c(-c3ccc(Cl)cc3)noc2CO)cc1C(N)=O [Example 102, 5-[3-(4-Chloro-phenyl)-5-hydroxymethyl-isoxazol-4-ylmethoxy]-2-methyl-2H-pyrazole-3-carboxylic acid amide] | 12.6 nM
2 | Cn1nc(OCc2c(-c3ccc(Cl)cc3)noc2CO)cc1C(=O)NCC(F)(F)F [Example 103, 5-[3-(4-Chloro-phenyl)-5-hydroxymethyl-isoxazol-4-ylmethoxy]-2-methyl-2H-pyrazole-3-carboxylic acid (2,2,2-trifluoro-ethyl)-amide] | 5.7 nM
3 | Cn1nc(OCc2c(-c3ccc(Cl)cc3)noc2CO)cc1C(=O)NCC(F)(F)C(F)(F)F [Example 104, 5-[3-(4-Chloro-phenyl)-5-hydroxymethyl-isoxazol-4-ylmethoxy]-2-methyl-2H-pyrazole-3-carboxylic acid (2,2,3,3,3-pentafluoro-propyl)-amide] | 6.6 nM
4 | Cn1nc(OCc2c(-c3ccc(Cl)cc3)noc2CO)cc1C(=O)NC1CC1 [Example 105, 5-[3-(4-Chloro-phenyl)-5-hydroxymethyl-isoxazol-4-ylmethoxy]-2-methyl-2H-pyrazole-3-carboxylic acid cyclopropylamide] | 5.4 nM
5 | Cn1nc(OCc2c(-c3ccc(Cl)cc3)noc2CO)cc1C(=O)NC(C)(C)CO [Example 107, 5-[3-(4-Chloro-phenyl)-5-hydroxymethyl-isoxazol-4-ylmethoxy]-2-methyl-2H-pyrazole-3-carboxylic acid (2-hydroxy-1,1-dimethyl-ethyl)-amide] | 17.8 nM
6 | Cn1nc(OCc2c(-c3ccc(Cl)cc3)noc2CO)cc1C(=O)NC1(C)COC1 [Example 108, 5-[3-(4-Chloro-phenyl)-5-hydroxymethyl-isoxazol-4-ylmethoxy]-2-methyl-2H-pyrazole-3-carboxylic acid (3-methyl-oxetan-3-yl)-amide] | 3.1 nM
7 | Cn1nc(OCc2c(-c3ccc(Cl)cc3)noc2CO)cc1C(=O)N1CC2(COC2)C1 [Example 109, {5-[3-(4-Chloro-phenyl)-5-hydroxymethyl-isoxazol-4-ylmethoxy]-2-methyl-2H-pyrazol-3-yl}-(2-oxa-6-aza-spiro[3.3]hept-6-yl)-methanone] | 9 nM
8 | Cn1nc(OCc2c(-c3ccc(Cl)cc3)noc2CO)cc1C(=O)N1CCC(F)(F)CC1 [Example 111, {5-[3-(4-Chloro-phenyl)-5-hydroxymethyl-isoxazol-4-ylmethoxy]-2-methyl-2H-pyrazol-3-yl}-(4,4-difluoro-piperidin-1-yl)-methanone] | 52.5 nM
9 | CCCCc1noc(CO)c1COc1cc(C(=O)NCC(F)(F)F)n(C)n1 [Example 112, 5-(3-Butyl-5-hydroxymethyl-isoxazol-4-ylmethoxy)-2-methyl-2H-pyrazole-3-carboxylic acid (2,2,2-trifluoro-ethyl)-amide] | 45.1 nM
10 | CCCCc1noc(CO)c1COc1cc(C(=O)NC2CCC2)n(C)n1 [Example 113, 5-(3-Butyl-5-hydroxymethyl-isoxazol-4-ylmethoxy)-2-methyl-2H-pyrazole-3-carboxylic acid cyclobutylamide] | 39.6 nM
11 | Cc1onc(-c2ccccn2)c1COc1cc(C(=O)NC(C)C)nn1C [Example 115, 1-Methyl-5-(5-methyl-3-pyridin-2-yl-isoxazol-4-ylmethoxy)-1H-pyrazole-3-carboxylic acid isopropylamide] | 20.5 nM
12 | Cc1onc(-c2ccccn2)c1COc1cc(C(=O)NC2CCOCC2)nn1C [Example 116, 1-Methyl-5-(5-methyl-3-pyridin-2-yl-isoxazol-4-ylmethoxy)-1H-pyrazole-3-carboxylic acid (tetrahydro-pyran-4-yl)-amide] | 18.2 nM
13 | Cc1onc(-c2ccc(F)cn2)c1COc1cc(C(=O)N[C@@H](C)CO)nn1C [Example 117, 5-[3-(5-Fluoro-pyridin-2-yl)-5-methyl-isoxazol-4-ylmethoxy]-1-methyl-1H-pyrazole-3-carboxylic acid ((S)-2-hydroxy-1-methyl-ethyl)-amide] | 6.8 nM
14 | Cc1onc(-c2ccccc2)c1/C=C/c1cc(C(=O)NC(C)C)[nH]n1 [Example 118, 5-[(E)-2-(5-Methyl-3-phenyl-isoxazol-4-yl)-vinyl]-2H-pyrazole-3-carboxylic acid iso-propylamide] | 5.1 nM
15 | Cc1onc(-c2ccccc2)c1/C=C\c1cc(C(=O)NC(C)C)[nH]n1 [Example 119, 5-[(Z)-2-(5-Methyl-3-phenyl-isoxazol-4-yl)-vinyl]-2H-pyrazole-3-carboxylic acid iso-propylamide] | 20.2 nM
16 | Cc1onc(-c2ccc(F)cc2)c1/C=C\c1cc(C(=O)NC(C)C)n(C)n1 [Example 120, 5-{(Z)-2-[3-(4-Fluoro-phenyl)-5-methyl-isoxazol-4-yl]-vinyl}-2-methyl-2H-pyrazole-3-carboxylic acid isopropylamide] | 28 nM

Row | SMILES | Ki
17 | Cc1onc(-c2ccc(F)cc2)c1/C=C\c1cc(C(=O)NC(C)CO)n(C)n1 (centres unmarked) [Example 121, 5-{(Z)-2-[3-(4-Fluoro-phenyl)-5-methyl-isoxazol-4-yl]vinyl}-2-methyl-2H-pyrazole-3-carboxylic acid (2-hydroxy-1-methyl-ethyl)-amide] | 49.6 nM
18 | Cc1onc(-c2ccc(F)cc2)c1/C=C/c1cc(C(=O)NC(C)C)n(C)n1 [Example 122, 5-{(E)-2-[3-(4-Fluoro-phenyl)-5-methyl-isoxazol-4-yl]vinyl}-2-methyl-2H-pyrazole-3-carboxylic acid isopropylamide] | 1.6 nM
19 | CCNC(=O)c1cc(/C=C/c2c(-c3ccc(F)cc3)noc2C)nn1C [Example 123, 5-{(E)-2-[3-(4-Fluoro-phenyl)-5-methyl-isoxazol-4-yl]vinyl}-2-methyl-2H-pyrazole-3-carboxylic acid ethylamide] | 1.3 nM
20 | Cc1onc(-c2ccc(F)cc2)c1/C=C/c1cc(C(=O)NCC(C)(C)O)n(C)n1 [Example 124, 5-{(E)-2-[3-(4-Fluoro-phenyl)-5-methyl-isoxazol-4-yl]vinyl}-2-methyl-2H-pyrazole-3-carboxylic acid (2-hydroxy-2-methyl-propyl)-amide] | 2 nM
21 | Cc1onc(-c2ccc(F)cc2)c1/C=C/c1cc(C(=O)NC2CCOCC2)n(C)n1 [Example 125, 5-{(E)-2-[3-(4-Fluoro-phenyl)-5-methyl-isoxazol-4-yl]vinyl}-2-methyl-2H-pyrazole-3-carboxylic acid (tetrahydro-pyran-4-yl)-amide] | 0.4 nM
22 | Cc1onc(-c2ccc(F)cc2)c1/C=C/c1cc(C(N)=O)n(C)n1 [Example 126, 5-{(E)-2-[3-(4-Fluoro-phenyl)-5-methyl-isoxazol-4-yl]vinyl}-2-methyl-2H-pyrazole-3-carboxylic acid amide] | 1.5 nM
23 | Cc1onc(-c2ccc(F)cc2)c1/C=C/c1cc(C(=O)N2CCS(=O)(=O)CC2)n(C)n1 [Example 127, (1,1-Dioxo-1,6-thiomorpholin-4-yl)-(5-{(E)-2-[3-(4-fluoro-phenyl)-5-methyl-isoxazol-4-yl]-vinyl}-2-methyl-2H-pyrazol-3-yl)-methanone] | 29.3 nM
24 | Cc1onc(-c2ccc(F)cc2)c1/C=C/c1cc(C(=O)NCC(F)(F)F)n(C)n1 [Example 128, 5-{(E)-2-[3-(4-Fluoro-phenyl)-5-methyl-isoxazol-4-yl]vinyl}-2-methyl-2H-pyrazole-3-carboxylic acid (2,2,2-trifluoro-ethyl)-amide] | 1.2 nM
25 | Cc1onc(-c2ccc(F)cc2)c1/C=C/c1cc(C(=O)N2CCOCC2)n(C)n1 [Example 129, (5-{(E)-2-[3-(4-Fluoro-phenyl)-5-methyl-isoxazol-4-yl]vinyl}-2-methyl-2H-pyrazol-3-yl)-morpholin-4-yl-methanone] | 11.8 nM
26 | Cc1onc(-c2ccc(F)cc2)c1/C=C/c1cc(C(=O)NC(C)CO)n(C)n1 (centres unmarked) [Example 130, 5-{(E)-2-[3-(4-Fluoro-phenyl)-5-methyl-isoxazol-4-yl]vinyl}-2-methyl-2H-pyrazole-3-carboxylic acid (2-hydroxy-1-methyl-ethyl)-amide] | 0.9 nM
27 | Cc1onc(-c2ccc(F)cc2)c1/C=C/c1cc(C(=O)N2CCS(=O)(=O)CC2)[nH]n1 [Example 131, (1,1-Dioxo-1,6-thiomorpholin-4-yl)-(5-{(E)-2-[3-(4-fluoro-phenyl)-5-methyl-isoxazol-4-yl]-vinyl}-2H-pyrazol-3-yl)-methanone] | 36.5 nM
28 | Cc1onc(-c2ccc(F)cc2)c1/C=C/c1cc(C(=O)N2CCOCC2)[nH]n1 [Example 132, (5-{(E)-2-[3-(4-Fluoro-phenyl)-5-methyl-isoxazol-4-yl]vinyl}-2H-pyrazol-3-yl)-morpholin-4-yl-methanone] | 50.6 nM
29 | Cc1onc(-c2ccc(F)cc2)c1/C=C/c1cc(C(=O)NCC(F)(F)F)[nH]n1 [Example 133, 5-{(E)-2-[3-(4-Fluoro-phenyl)-5-methyl-isoxazol-4-yl]vinyl}-2H-pyrazole-3-carboxylic acid (2,2,2-trifluoro-ethyl)-amide] | 4.1 nM
30 | Cc1onc(-c2ccc(F)cc2)c1/C=C/c1cc(C(=O)NC(C)C)[nH]n1 [Example 134, 5-{(E)-2-[3-(4-Fluoro-phenyl)-5-methyl-isoxazol-4-yl]-vinyl}-2H-pyrazole-3-carboxylic acid isopropylamide] | 5.2 nM
31 | Cc1onc(-c2ccc(F)cc2)c1/C=C/c1cc(C(=O)N2CC3(COC3)C2)n(C)n1 [Example 135, (5-{(E)-2-[3-(4-Fluoro-phenyl)-5-methyl-isoxazol-4-yl]-vinyl}-2-methyl-2H-pyrazol-3-yl)-(2-oxa-6-aza-spiro[3.3]hept-6-yl)-methanone] | 2.4 nM
32 | Cc1onc(-c2ccc(F)cc2)c1/C=C/c1cc(C(=O)N2CC3(COC3)C2)[nH]n1 [Example 137, (5-{(E)-2-[3-(4-Fluoro-phenyl)-5-methyl-isoxazol-4-yl]vinyl}-2H-pyrazol-3-yl)-(2-oxa-6-aza-spiro[3.3]hept-6-yl)-methanone] | 1.4 nM
